Test results as given in US8058270B2, “Dihydropteridinones for the treatment of cancer diseases” (Boehringer Ingelheim International GmbH, priority 2004, dated 2011).

What was measured:
Format in all cases: cell-based
GRANTA-519 [1] = test: FACS analysis on PI stained tumor cells, G2/M arrest; details: Homo sapiens; GRANTA-519 (Lymphoma), 24 hrs; read-out: FACS Analysis G2M-Arrest EC50
Excerpt: (§1) FACS Analysis on PI Stained Tumor Cells
(§2) Propidium iodine (PI) binds stoichiometrically to double stranded DNA and thus is a suitable agent to measure the DNA content of cells in order to determine the percentage of cells residing in various cell cycle stages (G0/1-, S- and G2/M-phases), whereas cells in G0 or G1 phase do have a diploid DNA content (2N) cells in G2 and M-phase (mitosis) do have a doubled (4N) DNA content.
(§3) Cell culture: The various human tumor cell lines can be purchased from American Type Culture Collection (ATCC) or the German Collection of Microorganisms and Cell Cultures (DSMZ) and cultivated in 75 to 175 cm^2 tissue culture flasks in the medium indicated by the supplier. The cells are maintained at 37° C. and 5% CO2 in a humidified atmosphere, with an appropriate split ratio. Logarithmically growing cells are used for the assays.
(§4) Assay conditions: On day one of the experiment 1×10^6 tumor cells are plated in 15 ml medium onto each 75 cm^2 tissue culture flask and the cultures are returned to the incubator. On the next day serial twofold dilutions (100× concentrated) of the inhibitor are prepared in tissue culture medium containing 10% DMSO. 150 μl of the 100× concentrated dilution is added to the 15 ml medium in the flask. As control DMSO is given into a separate flask to yield a final concentration of 0.1%. Typical final concentrations used are 1.6, […], 0.4, 0.2, 0.1, 0.05, 0.025, 0.0125, 0.00625 μM in medium containing 0.1% DMSO. After 24 hrs of incubation cells are harvested by 2× wash with PBS and subsequent addition of trypsin/EDTA. Trypsinized cells are washed off the plastic with 1% BSA in PBS. Non-adherent cells in the medium and cells in the PBS wash fluids are pelleted together with the trypsinized cells by centrifuging them for 5 min at 1000 rpm at 4° C. The supernatants are discarded and the pellet is washed twice with PBS. After aspiration of the supernatants pellets are resuspended in the residual PBS (˜100 μl). For cell fixation, 15 ml test tubes (Falcon) with 5 ml of 80% cold ethanol are prepared and the cell suspension is added slowly and kept for at least 2 h or overnight at minus 20° C. Fixed cells are pelleted, washed once with PBS and the cell pellet is then resuspended in 2 ml of 0.25% Triton X-100 in PBS. After 5 min incubation on ice, 5 ml of PBS is added to each sample and the sample is again centrifuged at 1000 rpm for 5 min at 4° C. The supernatant is discarded and the pellet is resuspended in 0.5 ml propidium iodine (PI) staining solution (0.1% RNase and 10 μg/ml propidium iodine in PBS). The cells are incubated for 20 min in the dark and subsequently transferred to 5 ml polystyrene round-bottom tubes.
(§5) Data analysis: Analysis of the DNA content of the cells can be performed using a FACS analyzer equipped with an argon laser (500 mW, emission 488 nm) and the use of the DNA Cell Quest analysis software (Beckton Dickinson). The logarithmic PI fluorescence is determined in a band-pass filter (Beckton Dickinson 585/43). Quantification of the cell populations residing in the individual cell cycle phases (e.g. G0/G1-, S- and G2/M-phases) is done with the ModFit LT software package from Becton Dickinson. An EC50 value for cells arrested at the G2/M-phase of the cell cycle is calculated by using a sigmoidal curve analysis program (Graph Pad Prism version 3.03).

BxPC-3 [2] = test: as above; details: Homo sapiens; BxPC-3 (Pancreas), 24 hrs; read-out: FACS Analysis G2M-Arrest EC50
Excerpt: as §1, §2, §3, §4, §5

Raji [3] = test: as above; details: Homo sapiens; Raji (Lymphoma), 24 hrs; read-out: FACS Analysis G2M-Arrest EC50
Excerpt: as §1, §2, §3, §4, §5

MDA-MB-435S = test: as above; details: Homo sapiens; MDA-MB-435S (Breast), 24 hrs; read-out: FACS Analysis G2M-Arrest EC50
Excerpt: as §1, §2, §3, §4, §5

A431 = test: as above; details: Homo sapiens, A-431; A431 (Vulva), 24 hrs; read-out: FACS Analysis G2M-Arrest EC50
Excerpt: as §1, §2, §3, §4, §5

PC-3 = test: as above; details: Homo sapiens; PC-3 (Prostate), 24 hrs; read-out: FACS Analysis G2M-Arrest EC50
Excerpt: as §1, §2, §3, §4, §5

A549 = test: as above; details: Homo sapiens; A549 (Lung), 24 hrs; read-out: FACS Analysis G2M-Arrest EC50
Excerpt: as §1, §2, §3, §4, §5

NCI-H520 = test: as above; details: Homo sapiens; NCI-H520 (Lung), 24 hrs; read-out: FACS Analysis G2M-Arrest EC50
Excerpt: as §1, §2, §3, §4, §5

NCI-H460 = test: as above; details: Homo sapiens; NCI-H460 (Lung), 24 hrs; read-out: FACS Analysis G2M-Arrest EC50
Excerpt: as §1, §2, §3, §4, §5

H4 = test: as above; details: Homo sapiens; H4 (Brain), 24 hrs; read-out: FACS Analysis G2M-Arrest EC50
Excerpt: as §1, §2, §3, §4, §5

FaDu = test: as above; details: Homo sapiens; FaDu (Head and Neck), 24 hrs; read-out: FACS Analysis G2M-Arrest EC50
Excerpt: as §1, §2, §3, §4, §5

HepG2 = test: as above; details: Homo sapiens; HepG2 (Liver), 24 hrs; read-out: FACS Analysis G2M-Arrest EC50
Excerpt: as §1, §2, §3, §4, §5

HeLa S3 = test: as above; details: Homo sapiens; HeLa S3 (Cervix), 24 hrs; read-out: FACS Analysis G2M-Arrest EC50
Excerpt: as §1, §2, §3, §4, §5

SKOV-3 = test: as above; details: Homo sapiens, SK-OV-3; SKOV-3 (Ovary), 24 hrs; read-out: FACS Analysis G2M-Arrest EC50
Excerpt: as §1, §2, §3, §4, §5

Saos-2 = test: as above; details: Homo sapiens; Saos-2 (Bone), 24 hrs; read-out: FACS Analysis G2M-Arrest EC50
Excerpt: as §1, §2, §3, §4, §5

GRANTA-519 [4] = test: Alamar Blue cytotoxicity assay; details: Homo sapiens; GRANTA-519 (Lymphoma), 72 h
Excerpt: (§6) Alamar Blue™ Cytotoxicity Assays
(§7) The Alamar Blue™ assay is designed to measure quantitatively the proliferation of cells by incorporating a fluorometric/colorimetric growth indicator based on the detection of metabolic activity.
as §3
(§8) Assay conditions: On day one of the experiment 1000-4000 cells (in 100 μl medium) are seeded into each well of a sterile 96-well plate. The number of cells used is dependent on the growth rate and size of the cells. Eight wells on each plate are left free to accommodate for controls (4 wells for medium plus reduced AlamarBlue™, and 4 wells for medium plus oxidized AlamarBlue™). The plates are kept in the incubator overnight. On day two of the experiment serial dilutions of the inhibitor are prepared in medium containing 0.1% DMSO. Typical concentrations used are 10, 3, 1, 0.3, 0.1, 0.03, 0.01, 0.003 and 0.001 μM. 100 μl of the dilution (2× concentrate) is added to each well to yield a final volume of 200 μl per well. As controls plain medium and medium containing 0.1% DMSO are added to the designated wells. All data points are done in quadruplicates. The cells are then incubated for 72 h. After this incubation period 20 μl of AlamarBlue™ is added to each well. As a control, 20 μl of reduced AlamarBlue™ (AlamarBlue™ autoclaved for 30 min) is added to 4 wells without cells, and 20 μl of AlamarBlue™ is added to the remaining 4 wells without cells. After 4-5 h of incubation, the plates are measured in a fluorescence spectrophotometer (excitation 530 nm, emission 590 nm, slits 15, integrate time 0.1).
(§9) Data analysis: For calculation the mean value from the quadruplicates is taken and the background is subtracted. The 0.1% DMSO value (the mean obtained from 8 wells with cells in medium with 0.1% DMSO but no compound) is taken as 100% control. The data is fitted by iterative calculations using a sigmoidal curve analysis program (Graph Pad Prism version 3.03) with variable Hill slope.

BxPC-3 [5] = test: Alamar Blue cytotoxicity assay; details: Homo sapiens; BxPC-3 (Pancreas), 72 h
Excerpt: as §6, §7, §3, §8, §9

THP-1 = test: Alamar Blue cytotoxicity assay; details: Homo sapiens; THP-1 (Leukemia), 72 h
Excerpt: as §6, §7, §3, §8, §9

MES-SA = test: Alamar Blue cytotoxicity assay; details: Homo sapiens; MES-SA (Uterus), 72 h
Excerpt: as §6, §7, §3, §8, §9

Raji [6] = test: Alamar Blue cytotoxicity assay; details: Homo sapiens; Raji (Lymphoma), 72 h
Excerpt: as §6, §7, §3, §8, §9

BRO = test: Alamar Blue cytotoxicity assay; details: Homo sapiens; BRO (Melanoma), 72 h
Excerpt: as §6, §7, §3, §8, §9

Question: With `CC[C@@H]1C(=O)N(C)c2cnc(Nc3ccc(C(=O)NC4CCN(C)CC4)cc3OC)nc2N1C1CCCC1` [4-[[(7R)-8-cyclopentyl-7-ethyl-5,6,7,8-tetrahydro-5-methyl-6-oxo-2-pteridinyl]amino]-3-methoxy-N-(1-methyl-4-piperidinyl)-benzamide] as the molecule, how does the EC50 (GRANTA-519 [1]) read?
Answer: 0.012 µM

Question: What about the EC50 (BxPC-3 [2]) of the same molecule?
Answer: 0.022 µM

Question: And the EC50 (Raji [3])?
Answer: 0.02 µM

Question: What about the EC50 (MDA-MB-435S) of the same molecule?
Answer: 0.038 µM

Question: What about the EC50 (A431) of the same molecule?
Answer: 0.006 µM

Question: What about the EC50 (PC-3) of the same molecule?
Answer: 0.012 µM

Question: And the EC50 (A549)?
Answer: 0.014 µM

Question: And the EC50 (NCI-H520)?
Answer: 0.018 µM

Question: What about the EC50 (NCI-H460) of the same molecule?
Answer: 0.032 µM

Question: And the EC50 (H4)?
Answer: 0.039 µM

Question: What about the EC50 (FaDu) of the same molecule?
Answer: 0.007 µM

Question: And the EC50 (HepG2)?
Answer: 0.039 µM

Question: And the EC50 (HeLa S3)?
Answer: 0.016 µM

Question: And the EC50 (SKOV-3)?
Answer: 0.011 µM

Question: And the EC50 (Saos-2)?
Answer: 0.011 µM

Question: What about the EC50 (GRANTA-519 [4]) of the same molecule?
Answer: 0.005 µM

Question: And the EC50 (BxPC-3 [5])?
Answer: 0.025 µM

Question: What about the EC50 (THP-1) of the same molecule?
Answer: 0.009 µM

Question: What about the EC50 (MES-SA) of the same molecule?
Answer: 0.01 µM

Question: What about the EC50 (Raji [6]) of the same molecule?
Answer: 0.014 µM

Question: And the EC50 (BRO)?
Answer: 0.004 µM
